In ChEMBL document CHEMBL1201862, “PubChem BioAssay data set” (2004):
Calls of active or inactive are those of the source.

How the values were obtained:
Genome polyprotein = Genome polyprotein (dengue virus type 2, UniProt P29990); test: flavivirus cap methylation enzyme inhibition – biochemical, confirmation dose response, primary screen (AID 588689); format: functional
[1] = Luminescence Cell-Based Dose Response HTS to Identify Inhibitors of 5'UTR Stem-Loop Driven Prion Protein mRNA Translation in H4 Neuroglioblastoma Cells. [Related pubchem assays: 1827 (Project Summary), 1813 (Primary HTS)]; format: functional
[2] = alpha-synuclein stem-loop luciferase translation blockers – H4 neuroglioma cells, luminescence, confirmation (AID 1988); format: functional, cell-based
[3] = luciferase reporter signal suppression in cells – H4 neuroglioma cells, luminescence, dose response (AID 1990); format: functional, cell-based
[4] = target: T1, Carboxy-terminal domain RNA polymerase II polypeptide A small phosphatase 1 (Homo sapiens, UniProt Q9GZU7); test: CTDSP1 inhibitors, concentration-response, biochemical, absorbance readout, ultra-high-throughput screen actives (AID 540297); format: functional
T1 sequence (Q9GZU7 whole entry): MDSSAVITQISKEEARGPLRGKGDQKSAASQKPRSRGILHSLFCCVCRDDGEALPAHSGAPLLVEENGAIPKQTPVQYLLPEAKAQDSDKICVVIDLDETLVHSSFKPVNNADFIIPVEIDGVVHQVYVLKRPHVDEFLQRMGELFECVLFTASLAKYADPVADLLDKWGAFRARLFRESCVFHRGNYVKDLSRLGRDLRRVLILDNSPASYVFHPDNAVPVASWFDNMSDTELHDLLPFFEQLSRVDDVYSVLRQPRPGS

Protein skinhead-1 = target: T2, Protein skinhead-1 (Caenorhabditis elegans, UniProt P34707); format: functional
T2 sequence (P34707 whole entry): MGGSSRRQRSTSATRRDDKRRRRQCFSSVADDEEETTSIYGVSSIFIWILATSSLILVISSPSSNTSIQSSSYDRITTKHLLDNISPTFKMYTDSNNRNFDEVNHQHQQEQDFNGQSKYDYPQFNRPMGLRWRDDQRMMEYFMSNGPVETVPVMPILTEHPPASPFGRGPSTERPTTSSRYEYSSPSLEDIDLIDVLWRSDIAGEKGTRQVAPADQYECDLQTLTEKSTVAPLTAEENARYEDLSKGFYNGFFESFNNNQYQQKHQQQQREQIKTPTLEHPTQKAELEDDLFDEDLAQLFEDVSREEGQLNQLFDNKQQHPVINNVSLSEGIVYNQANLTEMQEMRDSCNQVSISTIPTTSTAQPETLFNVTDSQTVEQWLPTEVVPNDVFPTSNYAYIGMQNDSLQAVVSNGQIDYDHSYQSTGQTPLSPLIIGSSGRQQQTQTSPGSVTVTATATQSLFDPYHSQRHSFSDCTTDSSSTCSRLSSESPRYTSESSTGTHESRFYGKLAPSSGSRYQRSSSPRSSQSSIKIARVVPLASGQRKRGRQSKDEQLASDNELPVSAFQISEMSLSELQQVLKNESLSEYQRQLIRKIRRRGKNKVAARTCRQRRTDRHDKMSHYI

Protein RecA = target: T3, Protein RecA (Mycobacterium tuberculosis, UniProt P9WHJ3); test: Fluorescence Cell-Free Homogeneous Dose Retest to Identify Inhibitors of RecA-Intein Splicing Activity. [Related pubchem assays (depositor defined):AID2097, AID2223, AID489010, AID492950]; format: functional
T3 sequence (P9WHJ3 whole entry): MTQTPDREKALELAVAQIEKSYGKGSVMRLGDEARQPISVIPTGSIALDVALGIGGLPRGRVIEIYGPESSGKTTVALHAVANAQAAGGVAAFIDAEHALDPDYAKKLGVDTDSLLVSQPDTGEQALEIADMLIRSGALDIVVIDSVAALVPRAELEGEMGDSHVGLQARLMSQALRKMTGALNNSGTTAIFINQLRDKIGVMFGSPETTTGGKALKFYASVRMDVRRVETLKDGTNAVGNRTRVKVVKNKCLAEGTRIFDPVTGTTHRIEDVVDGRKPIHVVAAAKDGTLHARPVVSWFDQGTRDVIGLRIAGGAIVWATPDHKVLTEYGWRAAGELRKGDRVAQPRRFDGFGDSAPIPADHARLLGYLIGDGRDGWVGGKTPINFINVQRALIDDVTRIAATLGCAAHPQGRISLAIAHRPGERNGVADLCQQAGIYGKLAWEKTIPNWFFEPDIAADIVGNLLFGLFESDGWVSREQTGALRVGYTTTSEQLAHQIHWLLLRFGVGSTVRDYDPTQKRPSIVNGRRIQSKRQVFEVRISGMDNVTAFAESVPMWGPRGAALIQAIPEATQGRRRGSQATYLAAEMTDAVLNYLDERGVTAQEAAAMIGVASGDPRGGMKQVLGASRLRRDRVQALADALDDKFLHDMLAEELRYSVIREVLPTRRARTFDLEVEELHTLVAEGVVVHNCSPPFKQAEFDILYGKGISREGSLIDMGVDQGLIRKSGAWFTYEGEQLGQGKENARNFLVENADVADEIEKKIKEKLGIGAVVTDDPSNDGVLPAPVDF

[5] = target: T4, Replicative DNA helicase DnaB (Mycobacterium tuberculosis, UniProt P9WMR3); test: DnaB intein splicing inhibitors, dose response, biochemical, cell-free fluorescence (AID 449749); format: functional
T4 sequence (P9WMR3 whole entry): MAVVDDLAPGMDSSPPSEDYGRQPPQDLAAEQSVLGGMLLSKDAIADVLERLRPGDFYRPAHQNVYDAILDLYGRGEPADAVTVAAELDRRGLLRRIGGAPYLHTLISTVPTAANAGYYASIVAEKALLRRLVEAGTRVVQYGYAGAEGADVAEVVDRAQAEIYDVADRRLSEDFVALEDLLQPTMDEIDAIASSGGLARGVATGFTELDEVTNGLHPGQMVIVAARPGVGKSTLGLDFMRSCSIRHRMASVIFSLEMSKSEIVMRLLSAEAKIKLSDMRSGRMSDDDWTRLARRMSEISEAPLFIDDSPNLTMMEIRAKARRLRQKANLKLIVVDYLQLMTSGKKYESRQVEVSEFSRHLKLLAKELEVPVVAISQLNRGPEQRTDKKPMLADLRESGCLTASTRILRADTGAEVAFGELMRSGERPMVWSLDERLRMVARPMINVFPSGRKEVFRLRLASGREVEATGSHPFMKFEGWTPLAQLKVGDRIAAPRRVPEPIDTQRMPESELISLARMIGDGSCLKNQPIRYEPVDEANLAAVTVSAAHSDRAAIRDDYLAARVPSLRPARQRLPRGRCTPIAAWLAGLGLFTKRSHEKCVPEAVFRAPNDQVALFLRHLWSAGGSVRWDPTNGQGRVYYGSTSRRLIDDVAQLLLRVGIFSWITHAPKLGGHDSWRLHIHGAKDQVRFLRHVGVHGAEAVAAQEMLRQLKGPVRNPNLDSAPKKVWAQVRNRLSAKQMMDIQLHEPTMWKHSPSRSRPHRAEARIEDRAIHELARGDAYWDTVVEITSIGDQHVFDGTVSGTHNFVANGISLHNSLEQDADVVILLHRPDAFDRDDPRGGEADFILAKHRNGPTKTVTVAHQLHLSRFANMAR

[6] = Luminescence Cell-Based Dose Response HTS to Identify Activators of Luciferase Translation or Activity in H4 […] Cells. [Related pubchem assays: 1829 (Project Summary), 1814 (Primary HTS)]; format: functional
Cytochrome P450 1A2 = target: T5, Cytochrome P450 1A2 (Homo sapiens, UniProt P05177);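 note: PubChem cytochrome P450 panel assay, CYP1A2 panel member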
T5 sequence (P05177 whole entry): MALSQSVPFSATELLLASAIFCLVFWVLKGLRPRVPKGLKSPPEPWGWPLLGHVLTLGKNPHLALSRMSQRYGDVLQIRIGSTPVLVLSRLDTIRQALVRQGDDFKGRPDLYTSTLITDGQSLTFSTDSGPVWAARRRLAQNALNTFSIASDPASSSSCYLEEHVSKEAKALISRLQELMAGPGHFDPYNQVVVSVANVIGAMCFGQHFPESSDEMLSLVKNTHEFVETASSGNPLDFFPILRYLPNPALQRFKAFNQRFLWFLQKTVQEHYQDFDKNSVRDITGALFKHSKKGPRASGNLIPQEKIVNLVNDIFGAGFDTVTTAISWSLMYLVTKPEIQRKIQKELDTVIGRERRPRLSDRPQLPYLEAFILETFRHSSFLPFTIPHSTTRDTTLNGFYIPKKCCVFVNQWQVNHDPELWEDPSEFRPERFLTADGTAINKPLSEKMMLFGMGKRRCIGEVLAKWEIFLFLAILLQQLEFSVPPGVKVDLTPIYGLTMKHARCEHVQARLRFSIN

Cytochrome P450 2C9 = Cytochrome P450 2C9 (Homo sapiens, UniProt P11712)
Chain of Cytochrome P450 2C9 (P11712 whole entry): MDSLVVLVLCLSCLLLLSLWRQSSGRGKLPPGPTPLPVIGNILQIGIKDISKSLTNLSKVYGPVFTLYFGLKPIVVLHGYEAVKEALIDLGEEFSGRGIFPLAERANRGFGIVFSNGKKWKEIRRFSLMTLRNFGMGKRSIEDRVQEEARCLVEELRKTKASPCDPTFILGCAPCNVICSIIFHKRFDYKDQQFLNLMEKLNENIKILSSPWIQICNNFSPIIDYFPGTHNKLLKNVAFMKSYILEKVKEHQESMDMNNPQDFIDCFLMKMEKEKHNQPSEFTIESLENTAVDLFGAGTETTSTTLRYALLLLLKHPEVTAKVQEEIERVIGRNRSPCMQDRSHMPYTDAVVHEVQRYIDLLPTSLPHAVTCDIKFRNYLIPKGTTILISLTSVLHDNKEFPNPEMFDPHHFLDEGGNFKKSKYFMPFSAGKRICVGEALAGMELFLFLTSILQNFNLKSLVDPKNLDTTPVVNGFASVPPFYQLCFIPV

Cytochrome P450 2D6 = Cytochrome P450 2D6 (Homo sapiens, UniProt P10635);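 note: CYP2D6 member of a cytochrome P450 panel assay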
Chain of Cytochrome P450 2D6 (P10635 whole entry): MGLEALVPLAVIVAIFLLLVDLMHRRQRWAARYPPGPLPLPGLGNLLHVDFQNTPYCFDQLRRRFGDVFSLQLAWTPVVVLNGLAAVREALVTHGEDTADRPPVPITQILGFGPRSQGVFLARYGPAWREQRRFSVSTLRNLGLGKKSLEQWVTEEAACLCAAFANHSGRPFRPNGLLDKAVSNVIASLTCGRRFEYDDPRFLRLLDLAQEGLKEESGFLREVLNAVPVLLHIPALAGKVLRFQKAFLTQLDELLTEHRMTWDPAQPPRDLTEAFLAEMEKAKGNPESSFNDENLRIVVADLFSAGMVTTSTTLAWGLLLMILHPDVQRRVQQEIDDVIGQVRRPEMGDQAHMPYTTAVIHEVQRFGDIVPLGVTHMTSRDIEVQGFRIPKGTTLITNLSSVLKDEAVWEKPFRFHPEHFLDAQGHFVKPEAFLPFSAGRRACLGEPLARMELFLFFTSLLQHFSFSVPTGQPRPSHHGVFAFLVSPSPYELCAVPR

Cytochrome P450 3A4 = Cytochrome P450 3A4 (Homo sapiens, UniProt P08684);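 note: CYP3A4 tested as one member of a cytochrome P450 panel screen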
Chain of Cytochrome P450 3A4 (P08684 whole entry): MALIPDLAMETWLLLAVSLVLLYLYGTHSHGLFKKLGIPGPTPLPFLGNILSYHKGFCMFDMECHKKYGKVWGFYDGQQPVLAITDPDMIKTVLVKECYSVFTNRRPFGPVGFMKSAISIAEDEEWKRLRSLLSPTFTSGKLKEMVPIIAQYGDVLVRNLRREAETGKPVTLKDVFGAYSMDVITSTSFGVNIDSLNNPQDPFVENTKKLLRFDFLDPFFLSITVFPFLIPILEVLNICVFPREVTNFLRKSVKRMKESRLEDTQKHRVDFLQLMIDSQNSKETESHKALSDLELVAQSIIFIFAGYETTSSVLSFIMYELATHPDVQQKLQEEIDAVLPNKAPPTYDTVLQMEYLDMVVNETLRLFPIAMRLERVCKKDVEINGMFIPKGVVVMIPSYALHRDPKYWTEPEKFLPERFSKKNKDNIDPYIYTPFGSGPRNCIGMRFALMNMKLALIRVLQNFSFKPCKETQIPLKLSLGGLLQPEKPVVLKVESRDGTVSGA

Chain of Genome polyprotein (P29990 2492-3391 limits assumed): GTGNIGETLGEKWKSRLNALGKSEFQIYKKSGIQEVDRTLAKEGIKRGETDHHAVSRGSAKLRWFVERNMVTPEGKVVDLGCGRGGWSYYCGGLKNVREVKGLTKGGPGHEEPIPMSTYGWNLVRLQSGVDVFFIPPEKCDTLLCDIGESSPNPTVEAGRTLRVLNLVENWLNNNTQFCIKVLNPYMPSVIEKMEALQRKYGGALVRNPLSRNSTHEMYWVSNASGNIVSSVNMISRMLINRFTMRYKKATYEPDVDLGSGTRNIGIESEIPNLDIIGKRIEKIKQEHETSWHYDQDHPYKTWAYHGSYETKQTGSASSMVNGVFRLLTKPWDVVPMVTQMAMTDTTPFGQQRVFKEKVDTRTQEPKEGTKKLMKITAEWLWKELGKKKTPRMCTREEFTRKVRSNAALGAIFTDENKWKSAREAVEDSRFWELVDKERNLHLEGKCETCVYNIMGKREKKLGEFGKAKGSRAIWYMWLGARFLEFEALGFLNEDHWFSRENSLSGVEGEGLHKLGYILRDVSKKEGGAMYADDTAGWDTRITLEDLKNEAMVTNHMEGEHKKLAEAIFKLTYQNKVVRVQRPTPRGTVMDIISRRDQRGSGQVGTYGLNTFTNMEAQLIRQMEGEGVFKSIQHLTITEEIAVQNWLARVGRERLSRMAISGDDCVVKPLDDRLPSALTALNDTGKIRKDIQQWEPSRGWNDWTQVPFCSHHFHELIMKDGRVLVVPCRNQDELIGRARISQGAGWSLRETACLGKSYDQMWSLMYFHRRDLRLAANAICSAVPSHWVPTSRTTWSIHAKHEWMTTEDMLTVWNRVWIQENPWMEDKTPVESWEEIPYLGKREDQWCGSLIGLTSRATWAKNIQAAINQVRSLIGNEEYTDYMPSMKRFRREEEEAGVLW

SMILES: CCc1sc(/C=C(/C#N)C(N)=S)cc1[N+](=O)[O-]
- IC50 (Genome polyprotein): 33.9 µM (active)

SMILES: N#Cc1cnn2c1nc(N1CCCCC1)c1ccccc12
- EC50 [1]: 11.3 µM (active)
- EC50 [2]: 12.7 µM (active)
- EC50 [3]: 10.6 µM (active)

SMILES: Clc1nc(Cl)nc(-c2cn(-c3ccccc3)c3ccccc23)n1
- IC50 [4]: 7.98 µM (active)

SMILES: Cc1cc(C)cc(NC(=S)N(Cc2ccc(Cl)cc2)Cc2ccc(C(=O)O)cc2)c1
- IC50 (Genome polyprotein): 92.1 µM (active)

SMILES: O=C(Nc1ccc(Cl)cc1Cl)c1ccc(Br)o1
- IC50 (Protein skinhead-1): > 100 µM (inactive)

SMILES: Cc1ccccc1NC(=O)C(=O)NNC(=O)COc1ccc2ccccc2c1
- IC50 [4]: 13.1 µM (active)

SMILES: O=C(/C=C/c1ccccc1)Nc1ccc(CN2CCOCC2)cc1
- IC50 (Protein skinhead-1): 11.4 µM (active)

SMILES: O=C1c2ccccc2OC2(C=Cc3ccccc3O2)N1Cc1ccccc1 (stereo not given)
- EC50 (Protein RecA): 166 µM (active)
- IC50 (Protein skinhead-1): > 100 µM (inactive)
- AC50 [5]: 2.83 µM (active)

SMILES: Oc1nncc(NCCc2ccccc2)c1Cl
- EC50 [1]: 25.9 µM (active)
- EC50 [2]: 14.2 µM (active)
- EC50 [3]: 6.91 µM (active)

SMILES: CCSc1nn2c(=O)c3ccccc3nc2s1
- EC50 [6]: 0.23 µM (active)

SMILES: COc1cc(/C=C2/C(=O)NN(c3ccc(C)c(Cl)c3)C2=O)cc([N+](=O)[O-])c1O
- IC50 [4]: 6.75 µM (active)

SMILES: O=C(Nc1ccccc1)c1cc2ccccc2c(=O)s1
- EC50 [6]: 6.73 µM (active)

SMILES: CC1CCCC(C)N1C(=O)COC(=O)/C=C/c1ccc(Br)o1 (stereo not given)
- IC50 [4]: 19.1 µM (active)

SMILES: O=C(c1ccc(-c2cccc(C(F)(F)F)c2)o1)N1CCOCC1
- IC50 (Protein skinhead-1): > 100 µM (inactive)

SMILES: O=C(CCN1C(=O)/C(=C\c2ccccc2F)SC1=S)Nc1ccc(C(=O)O)c(O)c1
- EC50 (Protein RecA): 15.2 µM (active)
- IC50 (Genome polyprotein): 32.5 µM (active)
- AC50 [5]: 11.4 µM (active)

SMILES: COc1ccc(OCCn2cc(/C=C(\C#N)C(=O)NCc3ccco3)c3ccccc32)cc1
- EC50 [1]: 27.8 µM (active)
- EC50 [2]: 13.3 µM (active)
- EC50 [3]: 16.1 µM (active)

SMILES: COc1ccc(N2CCN(C(=O)C3CCCN3S(=O)(=O)c3cccc4nsnc34)CC2)cc1 (stereo not given)
- EC50 [1]: > 120 µM (not active)
- EC50 [2]: > 120 µM (not active)
- EC50 [3]: > 120 µM (not active)

SMILES: O=C1CS/C(=C\[N+](=O)[O-])N1c1ccc(OC(F)(F)F)cc1
- EC50 (Protein RecA): 10.9 µM (active)
- AC50 (Cytochrome P450 1A2): 6.31 µM (inconclusive)
- AC50 (Cytochrome P450 2C9): 15.8 µM (inconclusive)
- AC50 (Cytochrome P450 2D6): 15.8 µM (inconclusive)
- AC50 [5]: 219 µM (active)

SMILES: Cc1cc(N)ccc1-n1nc2ccccc2n1
- EC50 [1]: 36.4 µM (active)
- EC50 [2]: 35.7 µM (active)
- EC50 [3]: 22.4 µM (active)

SMILES: OCCN1CCN(CC/C=C2/c3ccccc3CSc3ccccc32)CC1
- EC50 [1]: > 120 µM (not active)
- EC50 [2]: > 120 µM (not active)
- EC50 [3]: > 120 µM (not active)

SMILES: COc1ccc(N2CCN(C(S)=Nc3cc(C)cc(C)c3)CC2)cc1
- AC50 (Cytochrome P450 3A4): 2.51 µM (inconclusive)
- EC50 [1]: > 120 µM (not active)
- EC50 [2]: > 120 µM (not active)
- EC50 [3]: > 120 µM (not active)

SMILES: C=C(C)c1cccc(C(C)(C)NC(=O)N2CCN(c3ncccn3)CC2)c1
- IC50 (Protein skinhead-1): > 100 µM (inactive)

SMILES: O=C1c2ccccc2C(=O)c2c(NCc3cccnc3)cccc21
- IC50 (Protein skinhead-1): > 100 µM (inactive)

SMILES: CC1(C)C(=O)Nc2ccccc2N1C(=O)COc1ccccc1C#N
- IC50 [4]: 13.2 µM (active)

SMILES: Cc1cc2c(SCC(=O)Nc3cccc(O)c3)ncnc2s1
- IC50 [4]: 6.88 µM (active)

SMILES: CC(=O)c1ccc(NC(=O)CN2C(=O)COc3ccc(S(=O)(=O)N4CCCC4)cc32)cc1
- IC50 [4]: 6.65 µM (active)

SMILES: CCOC(=O)C(C)C1(O)c2ccccc2-c2ncccc21 (stereo not given)
- IC50 (Protein skinhead-1): > 100 µM (inactive)

SMILES: Cc1ccc(C=Cc2ccccn2)cc1
- IC50 (Protein skinhead-1): 33.9 µM (active)

SMILES: Cn1/c(=N/C(=O)C2=NNC(=O)CC2)sc2ccccc21
- EC50 [1]: > 120 µM (not active)
- EC50 [2]: > 120 µM (not active)
- EC50 [3]: > 120 µM (not active)

SMILES: CC(O)CC(=O)O (stereo not drawn) [3-HYDROXYBUTYRIC ACID, (+/-)-]
- IC50 (Protein skinhead-1): > 100 µM (inactive)
